Results on three molecules are retold here after patent US20110039824A1, “1,2,3,6-tetrahydroazepino[4,5-b]indole-5-carboxylate nuclear receptor inhibitors” (Wyeth, priority 2008, published 2011).

One series deals with Caco2. In words: Caco2 permeability. In kind it is in vitro ADME.
Series [1] concerns the target T1, Progesterone Receptor (PR) (Homo sapiens, UniProt P06401).
T1 sequence (P06401 679-933 limits assumed): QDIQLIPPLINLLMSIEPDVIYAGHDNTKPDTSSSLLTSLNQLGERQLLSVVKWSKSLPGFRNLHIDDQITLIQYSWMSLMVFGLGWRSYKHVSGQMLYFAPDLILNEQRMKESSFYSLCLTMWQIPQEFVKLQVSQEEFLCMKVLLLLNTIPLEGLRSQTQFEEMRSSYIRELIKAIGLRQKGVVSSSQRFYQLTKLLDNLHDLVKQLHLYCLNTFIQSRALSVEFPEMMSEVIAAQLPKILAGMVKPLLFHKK
The experiment in a line: Progesterone receptor (PR) antagonism, alkaline phosphatase assay in T47D cells. Format: cell-based. The following applies: percent inhibition @ 10 μM vs 1 nM progesterone. How it is done: DMEM:F12 (1:1) (GIBCO, BRL) supplemented with 5% (v/v) charcoal stripped fetal bovine serum (not heat-inactivated), 100 U/ml penicillin, 100 jig/ml streptomycin, and 2 mM GlutaMax (GIBCO, BRL).
I. 0.1M Tris-HCl, pH 9.8, containing 0.2% Triton X-100 II. 0.1 M Tris-HCl, pH 9.8, containing 4 mM p-nitrophenyl phosphate (Sigma).
Frozen T47D cells were thawed in a 37° C. water bath and diluted to 280,000 cells/ml in culture medium. To each well in a 96-well plate (Falcon, Becton Dickinson Labware), 180 μl of diluted cell suspension was added. Twenty μl of reference or test compounds diluted in the culture medium were then added to each well. When testing for progestin antagonist activity, reference antiprogestins or test compounds were added in the presence of 1 nM progesterone. The cells were incubated at 37° C. in a 5% CO2/humidified atmosphere for 24 hours.
At the end of treatment, the medium was removed from the plate. Fifty μl of assay buffer I was added to each well. The plates were shaken in a titer plate shaker for […]. Then 150 μl of assay buffer II was added to each well. Optical density measurements were taken at 5 min intervals for 30 min at a test wavelength of 405 nm.

A short description of another series: PAMPA permeability. In kind it is in vitro ADME.
Series [2] in a line: Solubility in 2% Tween/0.5% MC aq. In kind it is physicochemical.
Another series has as its system LDLR KO Mouse Model. In words: Mouse serum triglyceride (TG) and cholesterol levels in LDLR -/- mice. In kind it is in vivo. The following applies: daily oral gavage 7 days. How it is done: Eight-week old LDLR −/−mice were purchased from Jackson Laboratories and maintained on a chow diet. Some LDLR −/−mice were fed a western diet (AlN-76A; Purina Test Diets) as indicated. All mice were treated by daily oral gavage with vehicle or varying concentrations of compound for 7 days. On the last day after the final dose, the food was removed to allow a 3 hr fast and serum was harvested for analysis. Serum TG and cholesterol levels were determined using a Roche 912 clinical chemistry analyzer and expressed as mg/dL.

The nature of the next series: HLM stability. In kind it is in vitro ADME. The following applies: human, liver microsomes; read-out: HLM (t1/2). Background: Liver microsomes are a subcellular fraction often used to study metabolism.
A further series has as its target T2, Gal4/hFXR fusion protein (Homo sapiens, UniProt Q96RI1).
T2 sequence (Q96RI1 262-486 limits assumed): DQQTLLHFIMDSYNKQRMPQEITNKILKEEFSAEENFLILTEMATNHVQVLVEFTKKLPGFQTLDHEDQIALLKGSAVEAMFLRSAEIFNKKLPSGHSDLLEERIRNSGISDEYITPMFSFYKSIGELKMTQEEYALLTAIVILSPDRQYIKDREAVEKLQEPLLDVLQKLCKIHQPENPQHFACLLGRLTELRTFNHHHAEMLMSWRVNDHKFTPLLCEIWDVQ
In words: Gal4/hFXR fusion protein agonist activity in human 293 cells (luciferase). In kind it is cell-based. Further details: rows headed: hFXR agonist EC50; hFXR agonist eff. @ 30 μM; other: efficacy @ 30 μM. The note with it: efficacy @ 30 μM. How it is done:
• Assay Medium: Phenol red free high glucose Dulbecco's modified Eagle's medium with sodium pyruvate (Cellgro, #17-205-CV) supplemented with 10% fetal bovine serum (Gibco, 16000-044), 1% glutamax (Gibco, 35050-061), 100 units/mL penicillin and 100 μg/mL streptomycin (Gibco, 15140-122). • Culturplate-96 (PerkinElmer, 6005688) • Lysis buffer (Promega, E3971) • Luciferase assay reagent (Promega E1483)
• 1. Compounds to be tested were prepared as 2× stocks in assay medium. • 2. […] The supernatant was removed and the cells were resuspended in 1 ml assay medium. The cells were counted and diluted in assay medium to 200,000 cells per ml. The cells were then plated at 10,000 cells per well in Culturplate-96 plates in 50 uL assay medium. The cells were incubated at 37° C. for approximately 1 hour. • 3. […] All assays included 1 uM GW4064 (Maloney et al., J. Med. Chem., 2000, 43(16), 2971-2974) as a reference standard. • 4. Cells were incubated for 24 hours at 37° C.
• 5. […] The plates were analyzed for luciferase activity with luciferase assay reagent (Promega E1483). Plates were read on Victor^3V instrument using the protocol “Shuguang Luciferase assay” (dispense volume=100 uL, plate type=“Packard Viewplate”, measurement height=8 mm from bottom of plate, 5 second read per well).
• 1. For agonist single point screening, data were analyzed in Excel. […]

A further series deals with CYP450 3A4 (Homo sapiens, UniProt P08684). The experiment in a line: CYP450 3A4 inhibition. Format: in vitro ADME.
In the next series the target is CYP450 2D6 (Homo sapiens, UniProt P10635). The experiment in a line: CYP450 2D6 inhibition. Format: in vitro ADME.
A further series addresses hERG (Homo sapiens, UniProt Q12809). The experiment in a line: hERG function. The note with it: values printed as concentrations; read-out: hERG function (% Inh. @ 10 μM). A general note: Block of hERG is tested as a sign of cardiac risk.
The next series deals with CYP450 2C9 (Homo sapiens, UniProt P11712). In words: CYP450 2C9 inhibition. In kind it is in vitro ADME.
The nature of series [3]: Pharmacokinetics (bioavailability, half life). Format: in vivo.

Chain of CYP450 3A4 (P08684 whole entry): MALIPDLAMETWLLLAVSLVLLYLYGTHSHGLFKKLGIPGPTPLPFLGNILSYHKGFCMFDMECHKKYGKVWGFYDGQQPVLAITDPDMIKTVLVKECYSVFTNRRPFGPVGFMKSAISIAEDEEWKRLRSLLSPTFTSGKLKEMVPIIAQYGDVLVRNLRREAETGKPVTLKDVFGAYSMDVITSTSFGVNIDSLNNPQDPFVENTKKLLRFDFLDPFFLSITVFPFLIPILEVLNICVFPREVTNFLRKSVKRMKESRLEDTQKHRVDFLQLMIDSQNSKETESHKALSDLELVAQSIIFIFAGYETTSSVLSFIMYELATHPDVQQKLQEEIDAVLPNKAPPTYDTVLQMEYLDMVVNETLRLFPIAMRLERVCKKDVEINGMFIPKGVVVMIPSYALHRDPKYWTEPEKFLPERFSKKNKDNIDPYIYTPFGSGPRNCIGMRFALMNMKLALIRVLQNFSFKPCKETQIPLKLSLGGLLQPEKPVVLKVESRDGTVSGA
Chain of CYP450 2C9 (P11712 whole entry): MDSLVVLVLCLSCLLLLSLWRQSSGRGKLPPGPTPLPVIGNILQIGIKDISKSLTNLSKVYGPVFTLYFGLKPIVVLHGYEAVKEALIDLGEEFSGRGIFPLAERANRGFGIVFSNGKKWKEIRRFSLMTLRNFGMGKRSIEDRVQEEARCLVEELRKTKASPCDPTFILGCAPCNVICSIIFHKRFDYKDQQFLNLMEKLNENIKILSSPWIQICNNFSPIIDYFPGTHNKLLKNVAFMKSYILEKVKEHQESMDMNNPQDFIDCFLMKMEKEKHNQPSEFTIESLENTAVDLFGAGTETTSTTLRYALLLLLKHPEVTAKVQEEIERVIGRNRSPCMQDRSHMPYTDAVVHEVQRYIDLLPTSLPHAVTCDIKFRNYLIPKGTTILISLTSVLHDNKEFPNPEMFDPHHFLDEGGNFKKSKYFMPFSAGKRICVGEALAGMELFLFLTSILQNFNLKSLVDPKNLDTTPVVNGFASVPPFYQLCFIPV
Chain of CYP450 2D6 (P10635 whole entry): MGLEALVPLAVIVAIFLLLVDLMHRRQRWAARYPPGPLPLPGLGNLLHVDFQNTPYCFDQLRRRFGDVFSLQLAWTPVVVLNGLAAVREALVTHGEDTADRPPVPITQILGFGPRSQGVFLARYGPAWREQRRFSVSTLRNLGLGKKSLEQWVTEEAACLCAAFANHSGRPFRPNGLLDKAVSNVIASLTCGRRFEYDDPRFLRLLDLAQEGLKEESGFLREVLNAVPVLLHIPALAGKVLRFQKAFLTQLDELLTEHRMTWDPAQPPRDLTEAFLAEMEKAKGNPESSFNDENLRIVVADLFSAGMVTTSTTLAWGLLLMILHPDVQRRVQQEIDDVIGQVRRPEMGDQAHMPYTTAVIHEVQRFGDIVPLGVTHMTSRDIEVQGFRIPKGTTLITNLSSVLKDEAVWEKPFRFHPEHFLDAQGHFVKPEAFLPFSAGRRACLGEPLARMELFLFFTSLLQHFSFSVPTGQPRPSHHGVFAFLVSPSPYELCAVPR
Chain of hERG (Q12809 whole entry): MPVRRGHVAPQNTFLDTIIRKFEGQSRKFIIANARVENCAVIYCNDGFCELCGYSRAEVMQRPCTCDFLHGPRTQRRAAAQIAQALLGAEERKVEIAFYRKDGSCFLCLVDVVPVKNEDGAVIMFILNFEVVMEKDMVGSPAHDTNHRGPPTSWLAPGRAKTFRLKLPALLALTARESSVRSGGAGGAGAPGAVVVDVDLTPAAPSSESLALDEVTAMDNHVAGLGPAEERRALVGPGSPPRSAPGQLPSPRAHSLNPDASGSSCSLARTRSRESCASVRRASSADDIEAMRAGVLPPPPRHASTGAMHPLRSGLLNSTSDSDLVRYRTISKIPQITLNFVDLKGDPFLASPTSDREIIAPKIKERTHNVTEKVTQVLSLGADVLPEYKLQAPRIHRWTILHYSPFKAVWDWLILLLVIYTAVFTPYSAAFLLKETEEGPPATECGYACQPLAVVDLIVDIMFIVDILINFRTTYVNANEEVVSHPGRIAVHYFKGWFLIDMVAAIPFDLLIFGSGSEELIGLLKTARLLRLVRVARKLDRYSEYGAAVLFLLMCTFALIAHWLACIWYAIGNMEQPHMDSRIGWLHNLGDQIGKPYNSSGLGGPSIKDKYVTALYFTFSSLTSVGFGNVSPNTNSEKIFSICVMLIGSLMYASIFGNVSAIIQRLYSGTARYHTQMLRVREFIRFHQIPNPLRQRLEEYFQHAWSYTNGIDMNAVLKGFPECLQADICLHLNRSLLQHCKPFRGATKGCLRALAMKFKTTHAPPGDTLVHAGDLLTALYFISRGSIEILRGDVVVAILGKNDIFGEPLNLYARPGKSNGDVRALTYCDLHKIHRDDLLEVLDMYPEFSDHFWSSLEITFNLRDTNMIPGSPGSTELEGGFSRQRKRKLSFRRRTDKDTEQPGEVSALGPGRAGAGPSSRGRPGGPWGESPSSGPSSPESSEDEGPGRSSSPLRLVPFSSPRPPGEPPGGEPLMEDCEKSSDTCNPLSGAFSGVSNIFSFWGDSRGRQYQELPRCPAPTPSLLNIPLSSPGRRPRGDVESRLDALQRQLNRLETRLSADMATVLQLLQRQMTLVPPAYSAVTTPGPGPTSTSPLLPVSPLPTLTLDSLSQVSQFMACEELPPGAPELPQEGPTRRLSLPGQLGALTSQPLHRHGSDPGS

As for `CC(C)OC(=O)C1=CN(C(=O)c2ccc(OCCCN3CCOCC3)cc2)CC(C)(C)c2c1[nH]c1cc(F)ccc21` [Example 30, Isopropyl 8-fluoro-1,1-dimethyl-3-[4-(3-morpholin-4-ylpropoxy)benzoyl]-1,2,3,6-tetrahydroazepino[4,5-b]indole-5-carboxylate], in the series on Caco2, the Transport mechanism result was “passive”, the “Caco2 Permeability (Pe × 10^−6) A-B” value is given as 0.8 × 10^−6 and the “Caco2 Permeability (Pe × 10^−6) B-A” value is 0.8 × 10^−6. The “PR Antagonism (Alk. Phos. Assay @ 10 μM)” value in series [1] was found to be 95%. In the series “PAMPA permeability”, the “PAMPA Permeability (Pe × 10^−6)” value is given as 0.66 × 10^−6. Moreover, in series [2], the “2% Tween/0.5% MC aq. sol. (mg/mL)” value was 0.20 mg/mL and the “2% Tween/0.5% MC aq. sol. (μM)” value is 355.0 µM. Besides, in the series on LDLR KO Mouse Model, the “Reduction of Total Cholesterol in a LDLR KO Mouse Model (Female) @ 10 mpk” value amounted to 60%, the “Reduction of Triglycerides in a LDLR KO Mouse Model (Female) @ 10 mpk” value (from here on “Reduction of Triglycerides … (Female) @ 10 mpk”) came to 65%, the “Reduction of Total Cholesterol in a LDLR KO Mouse Model (Male) @ 10 mpk” value (“Reduction of Total Cholesterol … (Male) @ 10 mpk” for short) is given as 74% and the “Reduction of Triglycerides in a LDLR KO Mouse Model (Male) @ 10 mpk” value (shortened to “Reduction of Triglycerides … (Male) @ 10 mpk”) amounted to 78%.
Turning to `CC(C)OC(=O)C1=CN(C(=O)c2ccc(OCCCN3CCOCC3)cc2)CC(C)(C)c2c1[nH]c1ccccc21` [Reference Compound 1, 1-methylethyl-1,1-dimethyl-3-({4-[(3-morpholin-4-ylpropyl)oxy]phenyl}carbonyl)-1,2,3,6-tetrahydroazepino[4,5-b]indole-5-carboxylate], the Transport mechanism result with Caco2 is given as “passive”. In addition, the “PR Antagonism (Alk. Phos. Assay @ 10 μM)” value in [1] is 90%. For the same molecule, in “PAMPA permeability”, the “PAMPA Permeability (Pe × 10^−6)” value is reported as 0 × 10^−6. Moreover, in series [2], the “2% Tween/0.5% MC aq. sol. (mg/mL)” value is reported as 0.19 mg/mL and the “2% Tween/0.5% MC aq. sol. (μM)” value worked out at 332.0 µM. Further, in the series with LDLR KO Mouse Model, the “Reduction of Total Cholesterol in a LDLR KO Mouse Model (Female) @ 10 mpk” value was 40%, the “Reduction of Triglycerides … (Female) @ 10 mpk” value came out at 25%, the “Reduction of Total Cholesterol … (Male) @ 10 mpk” value is 49% and the “Reduction of Triglycerides … (Male) @ 10 mpk” value was found to be 59%.
For `CC(C)OC(=O)C1=CN(C(=O)c2ccc(F)c(F)c2)CC(C)(C)c2c1[nH]c1ccccc21` [Reference Compound 2, isopropyl-3-(3,4-difluorobenzoyl)-1,1-dimethyl-1,2,3,6-tetrahydroazepino[4,5-b]indole-5-carboxylate], in the series on Caco2, the Transport mechanism entry is “passive”, the “Caco2 Permeability (Pe × 10^−6) A-B” value was 0.5 × 10^−6 and the “Caco2 Permeability (Pe × 10^−6) B-A” value is on record as 0.5 × 10^−6. For the same molecule, the “Caco2 Permeability, class” value in the series on Caco2 (class in words) was “Low”. Further, in the series “HLM stability”, the half-life amounted to 18 min. In series [1], the “PR Antagonism (Alk. Phos. Assay @ 10 μM)” value came to 44% @ 10 μM. The “hFXR agonist eff. @ 30 μM” value on Gal4/hFXR fusion protein is given as 179%. Moreover, the “CYP450 3A4 % I @ 3 μM” value at CYP450 3A4 is 43%. Also, the “CYP450 2D6 % I @ 3 μM” value at CYP450 2D6 turned out to be 5%. The “PAMPA Permeability (Pe × 10^−6)” value in “PAMPA permeability” is reported as 0 × 10^−6. Further, the IC50 on hERG was above 10 µM. At CYP450 2C9, the “CYP450 2C9 % I @ 3 μM” value came to 24%. In [3], the “Bioavailability (dosed in aqueous MC/Tween)” value is reported as “poor”. Besides, in series [2], the “2% Tween/0.5% MC aq. sol. (mg/mL)” value is listed as 0.01 mg/mL and the “2% Tween/0.5% MC aq. sol. (μM)” value turned out to be 22.0 µM. In the series on LDLR KO Mouse Model, the “Reduction of Total Cholesterol in a LDLR KO Mouse Model (Female) @ 10 mpk” value is reported as 36%, the “Reduction of Triglycerides … (Female) @ 10 mpk” value is recorded as 39%, the “Reduction of Total Cholesterol … (Male) @ 10 mpk” value was found to be 47% and the “Reduction of Triglycerides … (Male) @ 10 mpk” value was 71%.
